Test results: the RepoRT retention time repository

Experiment: RP, Waters Atlantis T3, 50 × 4.6 mm, 5 µm, 40 °C, 0.8 mL/min, estimated dead time 0.66 min; A: water + 0.05% trifluoroacetic acid; B: acetonitrile + 0.1% formic acid, pH 3; gradient (min/%B) 0/10 1/10 7/95 12/95 12.5/10 14/10
Conditions: stereoisomer not certain
For COC1C(OC(N)=O)C(O)C(Oc2ccc3c(O)c(NC(=O)c4ccc(O)c(CC=C(C)C)c4)c(=O)oc3c2C)OC1(C)C (stereo not given) [Novobiocin], the LC retention time was 7.62 min. In the case of C=C(NC(=O)C(=C)NC(=O)c1csc(C2=NC3c4csc(n4)C4NC(=O)c5csc(n5)C(C(C)(O)C(C)O)NC(=O)C5CSC(=N5)C(=CC)NC(=O)C(C(C)O)NC(=O)c5csc(n5)C3(CC2)NC(=O)C(C)NC(=O)C(=C)NC(=O)C(C)NC(=O)C(C(C)CC)NC2C=Cc3c(C(C)O)cc(nc3C2O)C(=O)OC4C)n1)C(N)=O (stereo not given) [Thiostrepton], the LC retention time is reported as 6.65 min. In the case of CC1(C)SC2C(NC(=O)C(N)c3ccccc3)C(=O)N2C1C(=O)O (stereo not given) [Ampicillin], the LC retention time is reported as 4.09 min. CCCCCCCCCC(=O)NC(Cc1c[nH]c2ccccc12)C(=O)NC(CC(N)=O)C(=O)NC(CC(=O)O)C(=O)NC1C(=O)NCC(=O)NC(CCCN)C(=O)NC(CC(=O)O)C(=O)NC(C)C(=O)NC(CC(=O)O)C(=O)NCC(=O)NC(CO)C(=O)NC(C(C)CC(=O)O)C(=O)NC(CC(=O)c2ccccc2N)C(=O)OC1C (stereo not given) [Daptomycin] showed an LC retention time of 5.79 min. Compound CCC(C)CCCC(=O)NC(CCN)C(=O)NC(C(=O)NC(CCN)C(=O)NC1CCNC(=O)C(C(C)O)NC(=O)C(CCN)NC(=O)C(CCN)NC(=O)C(CC(C)C)NC(=O)C(CC(C)C)NC(=O)C(CCN)NC1=O)C(C)O (stereo not given) [Colistin] has an LC retention time of 4.44 min. Work on COc1cccc2c1C(=O)c1c(O)c3c(c(O)c1C2=O)CC(O)(C(C)=O)CC3OC1CC(N)C(O)C(C)O1 (stereo not given) [Daunomycin] yielded an LC retention time of 5.44 min. Work on CCCC1CC(C(=O)NC(C(C)Cl)C2OC(SC)C(O)C(O)C2O)N(C)C1 (stereo not given) [Clindamycin] yielded an LC retention time of 4.83 min. Work on COC1C=COC2(C)Oc3c(C)c(O)c4c(O)c(c(C=NN5CCN(C)CC5)c(O)c4c3C2=O)NC(=O)C(C)=CC=CC(C)C(O)C(C)C(O)C(C)C(OC(C)=O)C1C (stereo not given) [Rifampicin] yielded an LC retention time of 6.17 min. CC(=O)NC1C(OC2c3ccc(c(Cl)c3)Oc3cc4cc(c3O)Oc3ccc(cc3Cl)CC3NC(=O)C(N)c5ccc(O)c(c5)Oc5cc(O)cc(c5)C(NC3=O)C(=O)NC4C(=O)NC3C(=O)NC2C(=O)NC(C(=O)O)c2cc(O)cc(OC4OC(CO)C(O)C(O)C4O)c2-c2cc3ccc2O)OC(CO)C(O)C1O (stereo not given) [Teicoplanin A3-1] gave an LC retention time of 4.02 min. CC1(C)SC2C(NC(=O)Cc3ccccc3)C(=O)N2C1C(=O)O (stereo not given) [Penicillin G] showed an LC retention time of 5.75 min. With CCCC=CC=CC(=O)NC(CC(N)=O)C(=O)NC(CC(N)=O)C(=O)NC(C(=O)NC(CCCN)C(=O)NC(C(=O)NC(C(=O)NC(C(=O)NC(C(=O)NC(Cc1ccccc1)C(=O)NC(CCCN)C(=O)NC(C(=O)NC(C(=O)NC(C(=O)NCC(=O)NC(CC(C)C)C(=O)NC(C)C(=O)NC(C(=O)O)C1CCC(O)C(Cl)C1)C1CCC(O)CC1)C(C)O)C1CCC(O)CC1)C(C)O)C1CCC(O)CC1)C1CCC(O)CC1)C(C)O)C1CCC(O)CC1 (stereo not given) [Ramoplanin A] the LC retention time was 5.22 min. With COc1cc(Cc2cnc(N)nc2N)cc(OC)c1OC [Trimethoprim] the LC retention time was 4.06 min. For CC=CC=CC1OC(O)(C(CC)C(=O)NCC=CC=C(C)C(OC)C(C)C2OC(C=CC=CC=C(C)C(=O)c3c(O)cc[nH]c3=O)C(O)C2O)C(O)C(O)C1(C)C (stereo not given) [Kirromycin], the LC retention time was 6.52 min. For C=C(NC(=O)c1csc(-c2nc3c(cc2O)-c2nc(cs2)C(=O)NC(C(C)O)C(=O)NC(=CC)c2nc(cs2)C(=O)NC2CC(O)C(=O)OCc4cccc5[nH]c(c(C)c45)C(=O)SCC(NC(=O)c4csc2n4)c2nc-3cs2)n1)C(N)=O (stereo not given) [Nosiheptide], the LC retention time was 6.77 min. Compound CCC(C(=O)O)C1CCC(C)C(C(C)C(O)C(C)C(=O)C(CC)C2OC3(C=CC(O)C4(CCC(C)(C5CCC(O)(CC)C(C)O5)O4)O3)C(C)CC2C)O1 (stereo not given) [Salinomycin] has an LC retention time of 11.2 min. For CC1C(NC(=O)C(=NOC(C)(C)C(=O)O)c2csc(N)n2)C(=O)N1S(=O)(=O)O (stereo not given) [Aztreonam], the LC retention time was 2.91 min. Work on CCC1OC(=O)C(C)C(OC2CC(C)(OC)C(O)C(C)O2)C(C)C(OC2OC(C)CC(N(C)C)C2O)C(C)(OC)CC(C)C(=O)C(C)C(O)C1(C)O (stereo not given) [Clarithromycin] yielded an LC retention time of 5.91 min. For CNC(CC(C)C)C(=O)NC1C(=O)NC(CC(N)=O)C(=O)NC2C(=O)NC3C(=O)NC(C(=O)NC(C(=O)O)c4cc(O)cc(O)c4-c4cc3ccc4O)C(O)c3ccc(c(Cl)c3)Oc3cc2cc(c3OC2OC(CO)C(O)C(O)C2OC2CC(C)(N)C(O)C(C)O2)Oc2ccc(cc2Cl)C1O (stereo not given) [Vancomycin], the LC retention time was 3.55 min. For CNC(=O)CC1NC(=O)c2csc(n2)-c2ccc(-c3nc(C4=NC(C(=O)N5CCCC5C(N)=O)CO4)cs3)nc2-c2csc(n2)-c2csc(n2)C(C(O)c2ccccc2)NC(=O)CNC(=O)c2nc(sc2COC)C(C(C)C)NC(=O)c2nc1sc2C (stereo not given) [GE2270A], the LC retention time was 6.62 min. For CC(=O)OC1CC2(C)C(CC(O)C3C4(C)CCC(O)C(C)C4CCC32C)C1=C(CCC=C(C)C)C(=O)O (stereo not given) [Fusidinic acid], the LC retention time was 8.3 min.
